Test results as given in ChEMBL document CHEMBL3046907, “Microwave-assisted synthesis of pyrido[1,2-a]benzimidazole derivatives of -aryloxyquinoline and their antimicrobial and antituberculosis activities” (2013).
Converted amounts (≈) assume the structure as drawn.

Assays:
Format in all cases: functional
[1] = test system: Clostridium tetani; experiment: Antibacterial activity against Clostridium tetani MTCC 449 after overnight incubation by broth microdilution method
[2] = test system: Salmonella typhi; experiment: Antibacterial activity against Salmonella enterica subsp. enterica serovar Typhi MTCC 98 after overnight incubation by broth microdilution method
[3] = test system: Streptococcus pneumoniae; experiment: Antibacterial activity against Streptococcus pneumoniae MTCC 1936 after overnight incubation by broth microdilution method
[4] = test system: Bacillus subtilis; experiment: Antibacterial activity against Bacillus subtilis MTCC 441 after overnight incubation by broth microdilution method
[5] = test system: Escherichia coli; experiment: Antibacterial activity against Escherichia coli MTCC 443 after overnight incubation by broth microdilution method
[6] = test system: Vibrio cholerae; experiment: Antibacterial activity against Vibrio cholerae MTCC 3906 after overnight incubation by broth microdilution method
[7] = test system: Mycobacterium tuberculosis; experiment: Growth inhibition of Mycobacterium tuberculosis H37Rv at 6.25 ug/ml after 28 days by Lowenstein-Jensen method; settings: 672 h, read-out: GI
[8] = test system: Aspergillus fumigatus; experiment: Antifungal activity against Aspergillus fumigatus MTCC 3008 after overnight incubation by broth microdilution method
[9] = test system: Candida albicans; experiment: Antifungal activity against Candida albicans MTCC 227 after overnight incubation by broth microdilution method
[10] = test system: Mycobacterium tuberculosis; experiment: Antitubercular activity against Mycobacterium tuberculosis H37Rv after 28 days by Lowenstein-Jensen method; settings: 672 h

Structure (SMILES) | MIC99 [1] | MIC99 [2] | MIC99 [3] | MIC99 [4] | MIC99 [5] | MIC99 [6] | inhibition of growth at 6.25 µg/mL [7] | MIC99 [8] | MIC99 [9] | MIC [10]
CC1(C)S[C@@H]2[C@H](NC(=O)[C@H](N)c3ccccc3)C(=O)N2[C@H]1C(=O)O [AMPICILLIN] | 250 µg/mL (≈ 715 µM) | 100 µg/mL (≈ 286 µM) | 100 µg/mL (≈ 286 µM) | 250 µg/mL (≈ 715 µM) | 100 µg/mL (≈ 286 µM) | 100 µg/mL (≈ 286 µM) |  |  |  | 
Cc1ccc(Oc2nc3ccccc3cc2-c2c(C#N)c(N)n3c(nc4cc(C)ccc43)c2C#N)cc1 | 62.5 µg/mL (≈ 130 µM) | 200 µg/mL (≈ 416 µM) | 200 µg/mL (≈ 416 µM) | 250 µg/mL (≈ 520 µM) | 62.5 µg/mL (≈ 130 µM) | 200 µg/mL (≈ 416 µM) | 12% | 1000 µg/mL (≈ 2080 µM) | 500 µg/mL (≈ 1040 µM) | 
COc1ccc2nc(Oc3ccc(F)cc3)c(-c3c(C#N)c(N)n4c(nc5cc(C)ccc54)c3C#N)cc2c1 | 100 µg/mL (≈ 194 µM) | 200 µg/mL (≈ 389 µM) | 100 µg/mL (≈ 194 µM) | 250 µg/mL (≈ 486 µM) | 100 µg/mL (≈ 194 µM) | 200 µg/mL (≈ 389 µM) | 96% | 1000 µg/mL (≈ 1940 µM) | 500 µg/mL (≈ 972 µM) | 12.5 µg/mL (≈ 24.3 µM)
COc1ccc2nc(Oc3ccc(C)cc3)c(-c3c(C#N)c(N)n4c(nc5cc(C)ccc54)c3C#N)cc2c1 | 200 µg/mL (≈ 392 µM) | 100 µg/mL (≈ 196 µM) | 100 µg/mL (≈ 196 µM) | 125 µg/mL (≈ 245 µM) | 200 µg/mL (≈ 392 µM) | 125 µg/mL (≈ 245 µM) | 10% | > 1000 µg/mL | 1000 µg/mL (≈ 1960 µM) | 
COc1ccc(Oc2nc3ccccc3cc2-c2c(C#N)c(N)n3c(nc4cc(C)ccc43)c2C#N)cc1 | 200 µg/mL (≈ 403 µM) | 125 µg/mL (≈ 252 µM) | 250 µg/mL (≈ 503 µM) | 250 µg/mL (≈ 503 µM) | 100 µg/mL (≈ 201 µM) | 250 µg/mL (≈ 503 µM) | 64% | 1000 µg/mL (≈ 2010 µM) | 200 µg/mL (≈ 403 µM) | 
CCn1cc(C(=O)O)c(=O)c2cc(F)c(N3CCNCC3)cc21 [NORFLOXACIN] | 50 µg/mL (≈ 157 µM) | 10 µg/mL (≈ 31.3 µM) | 10 µg/mL (≈ 31.3 µM) | 100 µg/mL (≈ 313 µM) | 10 µg/mL (≈ 31.3 µM) | 10 µg/mL (≈ 31.3 µM) |  |  |  | 
Cc1ccc2nc(Oc3ccc(F)cc3)c(-c3c(C#N)c(N)n4c(nc5ccccc54)c3C#N)cc2c1 | 250 µg/mL (≈ 516 µM) | 250 µg/mL (≈ 516 µM) | 200 µg/mL (≈ 413 µM) | 250 µg/mL (≈ 516 µM) | 200 µg/mL (≈ 413 µM) | 250 µg/mL (≈ 516 µM) | 94% | 500 µg/mL (≈ 1030 µM) | 250 µg/mL (≈ 516 µM) | 25 µg/mL (≈ 51.6 µM)
Cc1ccc2nc(Oc3ccccc3)c(-c3c(C#N)c(N)n4c(nc5cc(C)ccc54)c3C#N)cc2c1 | 250 µg/mL (≈ 520 µM) | 250 µg/mL (≈ 520 µM) | 100 µg/mL (≈ 208 µM) | 500 µg/mL (≈ 1040 µM) | 250 µg/mL (≈ 520 µM) | 200 µg/mL (≈ 416 µM) | 71% | > 1000 µg/mL | 500 µg/mL (≈ 1040 µM) | 
COc1ccc2nc(Oc3ccccc3)c(-c3c(C#N)c(N)n4c(nc5ccccc54)c3C#N)cc2c1 | 100 µg/mL (≈ 207 µM) | 200 µg/mL (≈ 415 µM) | 250 µg/mL (≈ 518 µM) | 250 µg/mL (≈ 518 µM) | 250 µg/mL (≈ 518 µM) | 200 µg/mL (≈ 415 µM) | 46% | 1000 µg/mL (≈ 2070 µM) | 500 µg/mL (≈ 1040 µM) | 
Cc1ccc2nc(Oc3ccccc3)c(-c3c(C#N)c(N)n4c(nc5ccccc54)c3C#N)cc2c1 | 250 µg/mL (≈ 536 µM) | 100 µg/mL (≈ 214 µM) | 200 µg/mL (≈ 429 µM) | 200 µg/mL (≈ 429 µM) | 62.5 µg/mL (≈ 134 µM) | 200 µg/mL (≈ 429 µM) | 19% | 1000 µg/mL (≈ 2140 µM) | 250 µg/mL (≈ 536 µM) | 
Cc1ccc2c(c1)nc1c(C#N)c(-c3cc4ccccc4nc3Oc3ccc(F)cc3)c(C#N)c(N)n12 | 250 µg/mL (≈ 516 µM) | 125 µg/mL (≈ 258 µM) | 100 µg/mL (≈ 206 µM) | 500 µg/mL (≈ 1030 µM) | 62.5 µg/mL (≈ 129 µM) | 500 µg/mL (≈ 1030 µM) | 99% | > 1000 µg/mL | 250 µg/mL (≈ 516 µM) | 6.25 µg/mL (≈ 12.9 µM)
Cc1ccc2c(c1)nc1c(C#N)c(-c3cc4ccccc4nc3Oc3ccccc3)c(C#N)c(N)n12 | 250 µg/mL (≈ 536 µM) | 200 µg/mL (≈ 429 µM) | 250 µg/mL (≈ 536 µM) | 200 µg/mL (≈ 429 µM) | 100 µg/mL (≈ 214 µM) | 500 µg/mL (≈ 1070 µM) | 49% | 500 µg/mL (≈ 1070 µM) | 500 µg/mL (≈ 1070 µM) | 
CO[C@H]1/C=C/O[C@@]2(C)Oc3c(C)c(O)c4c(O)c(c(/C=N/N5CCN(C)CC5)c(O)c4c3C2=O)NC(=O)/C(C)=C\C=C\[C@H](C)[C@H](O)[C@@H](C)[C@@H](O)[C@@H](C)[C@H](OC(C)=O)[C@@H]1C [RIFAMPIN] |  |  |  |  |  |  | 98% |  |  | 40 µg/mL (≈ 48.6 µM)
COc1ccc(Oc2nc3ccccc3cc2-c2c(C#N)c(N)n3c(nc4ccccc43)c2C#N)cc1 | 250 µg/mL (≈ 518 µM) | 200 µg/mL (≈ 415 µM) | 200 µg/mL (≈ 415 µM) | 250 µg/mL (≈ 518 µM) | 125 µg/mL (≈ 259 µM) | 125 µg/mL (≈ 259 µM) | 24% | 500 µg/mL (≈ 1040 µM) | 250 µg/mL (≈ 518 µM) | 
O=C(O)c1cn(C2CC2)c2cc(N3CCNCC3)c(F)cc2c1=O [CIPROFLOXACIN] |  | 25 µg/mL (≈ 75.4 µM) | 50 µg/mL (≈ 151 µM) | 50 µg/mL (≈ 151 µM) | 25 µg/mL (≈ 75.4 µM) | 25 µg/mL (≈ 75.4 µM) |  |  |  | 
